Our source for the IC50 and IC95 values is ChEMBL document CHEMBL1134148, “Combinatorial synthesis of CCR5 antagonists” (Bioorg Med Chem Lett, 2001).

Activity calls are given as the source filed them. The calls are words filed in the database; no cut-off is given here.

The target in assay [1] is T1, C-C chemokine receptor type 5 (Homo sapiens, UniProt P51681). The experiment in a line: Ability to inhibit binding of [125I]-MIP-1 alpha to C-C chemokine receptor type 5 in Chinese hamster ovary (CHO) cell membranes.
Assay [2] deals with T1, C-C chemokine receptor type 5. The experiment in a line: Ability to inhibit binding of [125I]-MIP-1 alpha to C-C chemokine receptor type 5 in Chinese hamster ovary (CHO) cell membranes.
For assay [3] the target is unchanged. As to the kind of experiment: Ability to inhibit binding of [125I]-MIP-1 alpha to C-C chemokine receptor type 5 in Chinese hamster ovary (CHO) cell membranes;NA means no significant activity.
Assay [4] relates to Human immunodeficiency virus 1. As to the kind of experiment: Inhibitory concentration for viral growth over 7 days vs YU-2 strain of HIV-1;NA means No significant activity at 10 uM. It is filed as functional, organism-based.
Assay [5] concerns Human immunodeficiency virus 1. As to the kind of experiment: Inhibitory concentration for viral growth over 7 days vs YU-2 strain of HIV-1 at 10 uM. To be noted: Human immunodeficiency virus 1, 168 h. It is filed as functional.

The term IC50 denotes the point on the concentration scale where inhibition reaches its midpoint. By IC95 is commonly meant the concentration at which the effect reaches the 95% level.

T1 sequence (P51681 whole entry): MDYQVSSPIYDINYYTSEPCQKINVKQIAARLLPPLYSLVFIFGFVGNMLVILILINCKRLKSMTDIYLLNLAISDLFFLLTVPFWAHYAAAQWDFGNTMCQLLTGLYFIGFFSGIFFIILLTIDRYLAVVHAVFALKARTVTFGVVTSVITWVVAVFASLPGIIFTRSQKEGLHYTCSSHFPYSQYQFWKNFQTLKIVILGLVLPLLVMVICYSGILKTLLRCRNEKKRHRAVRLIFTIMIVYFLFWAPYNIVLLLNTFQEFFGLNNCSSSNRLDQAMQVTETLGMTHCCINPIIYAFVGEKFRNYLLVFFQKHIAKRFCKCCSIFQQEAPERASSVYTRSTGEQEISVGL

In assay [1], `CN(CC(CCN1CCC(O)(CCCc2ccccc2)CC1)c1ccccc1)S(=O)(=O)c1cccs1` (stereo unspecified) yielded an IC50 of 6.5 nM.
In assay [2], `O=S(=O)(c1ccc(-c2ccccn2)s1)N1C[C@H](CN2CCC(CCCc3ccccc3)CC2)[C@@H](c2ccccc2)C1` yielded an IC50 of 60 nM.
In the case of `CN(CC1CCCCC1)CC(CCN1CCC(O)(CCCc2ccccc2)CC1)c1ccccc1` (stereo unspecified), the IC50 entry in assay [3] is recorded as “Not Active”.
For the molecule `CN(CC1CCCCC1)CC(CCN1CCC(CCCc2ccccc2)CC1)c1ccccc1` (stereo unspecified), the IC50 result in assay [3] is recorded as “Not Active”.
The molecule `O=S(=O)(c1ccc(-c2ccccn2)s1)N1C[C@H](CN2CCC(O)(CCCc3ccccc3)CC2)[C@@H](c2ccccc2)C1` registered an IC50 in assay [2] of 41 nM.
As for `O=S(=O)(c1cccs1)N1CC(CN2CCC(O)(CCCc3ccccc3)CC2)[C@@H](c2ccccc2)C1` (stereo partly specified), in assay [2], the IC50 is 20 nM.
For `CN(CC(CCN1CCC(CCCc2ccccc2)CC1)c1ccccc1)S(=O)(=O)c1cccs1` (stereo unspecified), the IC95 entry in assay [4] was “inactive”. Moreover, the IC50 in assay [1] turned out to be 3 nM.
On to `CN(CC(CCN1CCC(O)(CCCc2ccccc2)CC1)c1ccccc1)S(=O)(=O)c1ccc(-c2ccccn2)s1` (stereo unspecified), for which the IC95 in assay [5] was 6200 nM. This molecule also gave an IC50 in assay [1] of 4 nM.
In assay [2], `c1ccc(CCCC2CCN(C[C@H]3CN(CC4CCCCC4)C[C@@H]3c3ccccc3)CC2)cc1` came in with an IC50 of 6.5 nM.
For `OC1(CCCc2ccccc2)CCN(C[C@H]2CN(CC3CCCCC3)C[C@@H]2c2ccccc2)CC1`, the IC95 in assay [5] came to 580 nM. In assay [2], this molecule had an IC50 of 1 nM.
Molecule `CN(CC(CCN1CCC(CCCc2ccccc2)CC1)c1ccccc1)S(=O)(=O)c1ccc(-c2ccccn2)s1` (stereo unspecified) showed an IC95 in assay [5] of 3100 nM. Also, the IC50 in assay [1] was determined as 2 nM.
In assay [2], `O=S(=O)(c1cccs1)N1C[C@H](CN2CCC(CCCc3ccccc3)CC2)[C@@H](c2ccccc2)C1` showed an IC50 of 25 nM.
